The results in this text go back to patent US10662187B2, “Bruton's tyrosine kinase inhibitors” (Zibo Biopolar Changsheng Pharmaceutical Co. Ltd., priority 2016, dated 2020).

Some results are limits rather than exact numbers.

The target in the first test is T1, BTK (Homo sapiens (Human), UniProt Q06187). As to the kind of experiment: Btk kinase assay (HTRF). In kind it is biochemical.
Settings: not given
The method, then:
Btk Kinase Assay and Other Kinases Assay Btk kinase activity was determined using a homogenous time resolved fluorescence (HTRF) methodology. Measurements were performed in a reaction volume of 15 μL using 384-well assay plates. Kinase enzyme, inhibitor, ATP and 1 μM peptide substrate were incubated in a reaction buffer compose of Hepes 50 mM (pH7.0), NaN3 0.02%, BSA 0.01%, Orthocanadate 0.1 mM. […] For each compound, enzyme activity as measured at various concentrations of compound, Negative control reactions were performed in the absence of inhibitor in two replicates and eight no enzyme controls were used to determine baseline fluorescence levels.
Target sequence in this assay (Q06187 whole entry, species assumed): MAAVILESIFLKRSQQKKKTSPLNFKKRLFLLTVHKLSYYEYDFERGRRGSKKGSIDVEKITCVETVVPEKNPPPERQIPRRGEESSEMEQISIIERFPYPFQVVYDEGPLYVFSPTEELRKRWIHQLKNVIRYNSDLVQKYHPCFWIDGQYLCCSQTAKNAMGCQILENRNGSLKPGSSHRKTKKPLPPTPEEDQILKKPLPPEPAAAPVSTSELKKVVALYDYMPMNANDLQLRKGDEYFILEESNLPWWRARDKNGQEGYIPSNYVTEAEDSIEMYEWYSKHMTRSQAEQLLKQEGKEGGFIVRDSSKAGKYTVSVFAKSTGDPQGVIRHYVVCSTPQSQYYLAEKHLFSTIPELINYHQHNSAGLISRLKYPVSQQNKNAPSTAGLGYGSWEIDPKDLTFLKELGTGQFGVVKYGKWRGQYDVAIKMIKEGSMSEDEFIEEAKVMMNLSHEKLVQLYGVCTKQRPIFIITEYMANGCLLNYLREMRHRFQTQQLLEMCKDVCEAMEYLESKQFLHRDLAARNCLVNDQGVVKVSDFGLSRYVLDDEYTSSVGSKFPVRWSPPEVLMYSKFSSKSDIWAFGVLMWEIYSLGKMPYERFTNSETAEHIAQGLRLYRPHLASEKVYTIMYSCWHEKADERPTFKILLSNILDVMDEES
Consider `C=CC(=O)N1CCC[C@@H](n2nc(-c3ccc(COc4ccccc4)cc3)c3ccccc32)C1` [Compound 102, (R)-1-(3-(3-(4-(phenoxymethyl)phenyl)-1H-indazol-1-yl)piperidin-1-yl)prop-2-en-1-one], for which the IC50 lay in the range of 10 to 100 nM.

In the case of `COc1cccc(Oc2ccc(-c3nn([C@@H]4CCCC(C(=O)O)C4)c4c(OC)cncc34)cc2)c1F` (stereo partly drawn) [Compound 121, (3R)-3-(3-(4-(2-fluoro-3-methoxyphenoxy)phenyl)-7-methoxy-1H-pyrazolo[4,3-c]pyridin-1-yl)cyclohexanecarboxylic acid], the IC50 is 10 to 100 nM.

The same test, now with this note: [ATP]=80 μM, BTK=3.4 nM; read-out: BTK Inhibition.
In the case of `C=CC(=O)N1CC[C@@H](n2nc(-c3ccc(Oc4cccc(OC)c4Cl)cc3)c3cncc(OC)c32)C1` [Compound 69, (R)-1-(3-(3-(4-(2-chloro-3-methoxyphenoxy)phenyl)-7-methoxy-1H-pyrazolo[4,3-c]pyridin-1-yl)pyrrolidin-1-yl)prop-2-en-1-one], the IC50 is under 10 nM.

Turning to `C=CC(=O)N1CCC[C@@H](n2nc(-c3ccc(Oc4cccc(OC)c4F)cc3)c3cncc(OCCC)c32)C1` [Compound 77, (R)-1-(3-(3-(4-(2-fluoro-3-methoxyphenoxy)phenyl)-7-propoxy-1H-pyrazolo[4,3-c]pyridin-1-yl)piperidin-1-yl)prop-2-en-1-one], the IC50 was under 10 nM.

Take `C=CC(=O)N1CCC[C@@H](n2nc(-c3ccc(Oc4cccc(OC)c4F)cc3)c3c(C)nccc32)C1` [Compound 78, (R)-1-(3-(3-(4-(2-fluoro-3-methoxyphenoxy)phenyl)-4-methyl-1H-pyrazolo[4,3-c]pyridin-1-yl)piperidin-1-yl)prop-2-en-1-one]: the IC50 was under 10 nM.

Take `CC#CC(=O)N1CCC[C@@H](n2nc(-c3ccc(Oc4cccc(OC)c4F)cc3)c3cncc(OCCN(C)C)c32)C1` [Compound 94, (R)-1-(3-(7-(2-(dimethylamino)ethoxy)-3-(4-(2-fluoro-3-methoxyphenoxy)phenyl)-1H-pyrazolo[4,3-c]pyridin-1-yl)piperidin-1-yl)but-2-yn-1-one]: the IC50 fell in the range of 10 to 100 nM.

On to `C=CC(=O)N1CCC[C@H](n2nc(-c3ccc(C(=C)c4ccccc4)cc3)c3cnccc32)C1` [Compound 95, (S)-1-(3-(3-(4-(1-phenylvinyl)phenyl)-1H-pyrazolo [4,3-c]pyridin-1-yl)piperidin-1-yl)prop-2-en-1-one], for which the IC50 is 10 to 100 nM.

For the compound `C=CC(=O)N1CCC[C@@H](n2nc(-c3ccc(Oc4cccc(OC)c4F)cc3)c3cncc(OC(C)C)c32)C1` [Compound 96, (R)-1-(3-(3-(4-(2-fluoro-3-methoxyphenoxy)phenyl)-7-isopropoxy-1H-pyrazolo[4,3-c]pyridin-1-yl)piperidin-1-yl)prop-2-en-1-one], the IC50 was in the range of 10 to 100 nM.

Regarding `C=CC(=O)N1CC[C@@H](n2nc(-c3ccc(OCc4ccccc4F)cc3)c3cnccc32)C1` [Compound 100, (R)-1-(3-(3-(4-((2-fluorobenzyl)oxy)phenyl)-1H-pyrazolo[4,3-c]pyridin-1-yl)pyrrolidin-1-yl)prop-2-en-1-one], the IC50 lay in the range of 10 to 100 nM.

In the case of `C=CC(=O)N1CCC[C@@H](n2nc(-c3ccc(OCc4ccccc4F)cc3)c3cnccc32)C1` [Compound 101, (R)-1-(3-(3-(4-((2-fluorobenzyl)oxy)phenyl)-1H-pyrazolo[4,3-c]pyridin-1-yl)piperidin-1-yl)prop-2-en-1-one], the IC50 fell in the range of 10 to 100 nM.

For `C=CC(=O)N1CC[C@@H](n2nc(-c3ccc(C(=O)NCc4cccc(OC)c4)cc3)c3cnccc32)C1` [Compound 103, (R)-4-(1-(1-acryloylpyrrolidin-3-yl)-1H-pyrazolo[4,3-c]pyridin-3-yl)-N-(3-methoxybenzyl)benzamide], the IC50 lay in the range of 100 to 1000 nM.

As for `C=CC(=O)N1CCC[C@@H](n2nc(-c3ccc(C(=O)NCc4cccc(OC)c4)cc3)c3cnccc32)C1` [Compound 104, (R)-4-(1-(1-acryloylpiperidin-3-yl)-1H-pyrazolo[4,3-c]pyridin-3-yl)-N-(3-methoxybenzyl)benzamide], the IC50 lay within 100 to 1000 nM.

For the compound `CC#CC(=O)N1CCC[C@@H](n2nc(-c3ccc(C(=O)Nc4ccccn4)cc3)c3cnccc32)C1` [Compound 105, (R)-4-(1-(1-(but-2-ynoyl)piperidin-3-yl)-1H-pyrazolo [4,3-c]pyridin-3-yl)-N-(pyridin-2-yl)benzamide], the IC50 was in the range of 100 to 1000 nM.

For `C=CC(=O)N1CC[C@@H](n2nc(-c3ccc(-c4cccc(C)c4)cc3)c3cnccc32)C1` [Compound 107, (R)-1-(3-(3-(3′-methyl-[1,1′-biphenyl]-4-yl)-1H-pyrazolo[4,3-c]pyridin-1-yl)pyrrolidin-1-yl)prop-2-en-1-one], the IC50 lay within 10 to 100 nM.

Consider `C=CC(=O)N1CC[C@@H](n2nc3ccncc3c2-c2ccc(-c3cccc(C)c3)cc2)C1` [Compound 108, (R)-1-(3-(3-(3′-methyl-[1,1′-biphenyl]-4-yl)-2H-pyrazolo[4,3-c]pyridin-2-yl)pyrrolidin-1-yl)prop-2-en-1-one], for which the IC50 was 100 to 1000 nM.

Take `C=CC(=O)N1CCC[C@@H](n2nc(-c3ccc(N4CCC(N5CCCCC5)CC4)cc3)c3cnccc32)C1` [Compound 110, (R)-1-(3-(3-(4-([1,4′-bipiperidin]-1′-yl)phenyl)-1H-pyrazolo [4,3-c]pyridin-1-yl)piperidin-1-yl)prop-2-en-1-one]: the IC50 was in the range of 10 to 100 nM.

For the compound `C=CC(=O)N1CC[C@@H](n2nc(-c3ccc(N4CCN(C)CC4)cc3)c3cnccc32)C1` [Compound 112, (R)-1-(3-(3-(4-(4-methylpiperazin-1-yl)phenyl)-1H-pyrazolo [4,3-c]pyridin-1-yl)pyrrolidin-1-yl)prop-2-en-1-one], the IC50 lay in the range of 100 to 1000 nM.

For `C=CC(=O)N1CCC[C@@H](n2nc(Nc3ccc(N4CCN(C)CC4)cc3)c3cnccc32)C1` [Compound 114, (R)-1-(3-(3-((4-(4-methylpiperazin-1-yl)phenyl)amino)-1H-pyrazolo[4,3-c]pyridin-1-yl)piperidin-1-yl)prop-2-en-1-one], the IC50 was 1000 to 10000 nM.

As for `C=CC(=O)N1CCC[C@@H](n2nc(-c3ccc(N4CCN(S(C)(=O)=O)CC4)cc3)c3cnccc32)C1` [Compound 115, (R)-1-(3-(3-(4-(4-(methylsulfonyl)piperazin-1-yl)phenyl)-1H-pyrazolo[4,3-c]pyridin-1-yl)piperidin-1-yl)prop-2-en-1-one], the IC50 was in the range of 100 to 1000 nM.

With `C=CC(=O)N1CCC(n2nc(-c3ccc(NC(=O)c4cccc(C(F)(F)F)c4)cc3)c3cnccc32)C1` (stereo not drawn) [Compound 116, N-{4-[1-(1-Acryloyl-pyrrolidin-3-yl)-1H-pyrazolo[4,3-c]pyridin-3-yl]-phenyl}-3-trifluoromethyl-benzamide], the IC50 lay within 10 to 100 nM.

`C=CC(=O)N1CCC[C@@H](n2nc(-c3ccc(NC(=O)c4cccc(C(F)(F)F)c4)cc3)c3cnccc32)C1` [Compound 117, (R)-N-(4-(1-(1-acryloylpiperidin-3-yl)-1H-pyrazolo[4,3-c]pyridin-3-yl)phenyl)-3-(trifluoromethyl)benzamide]: the IC50 was 10 to 100 nM.

On to `COc1cccc(Oc2ccc(-c3nn([C@@H]4CCCN(C(=O)C(C)O)C4)c4c(OC)cncc34)cc2)c1F` (stereo partly drawn) [Compound 118, 1-((R)-3-(3-(4-(2-fluoro-3-methoxyphenoxy)phenyl)-7-methoxy-1H-pyrazolo[4,3-c]pyridin-1-yl)piperidin-1-yl)-2-hydroxypropan-1-one], for which the IC50 is 10 to 100 nM.

Take `COc1cccc(Oc2ccc(-c3nn([C@@H]4CCCN(C(=O)C(=O)O)C4)c4c(OC)cncc34)cc2)c1F` [Compound 119, (R)-2-(3-(3-(4-(2-fluoro-3-methoxyphenoxy)phenyl)-7-methoxy-1H-pyrazolo[4,3-c]pyridin-1-yl)piperidin-1-yl)-2-oxoacetic acid]: the IC50 was in the range of 10 to 100 nM.

On to `COc1cccc(Oc2ccc(-c3nn([C@@H]4CCCN(C(=O)C(N)=O)C4)c4c(OC)cncc34)cc2)c1F` [Compound 120, (R)-2-(3-(3-(4-(2-fluoro-3-methoxyphenoxy)phenyl)-7-methoxy-1H-pyrazolo[4,3-c]pyridin-1-yl)piperidin-1-yl)-2-oxoacetamide], for which the IC50 lay in the range of 10 to 100 nM.

As for `COc1cccc(Oc2ccc(-c3nn(C4CCC(C(=O)O)CC4)c4c(OC)cncc34)cc2)c1F` (stereo not drawn) [Compound 122, 4-(3-(4-(2-fluoro-3-methoxyphenoxy)phenyl)-7-methoxy-1H-pyrazolo[4,3-c]pyridin-1-yl)cyclohexanecarboxylic acid], the IC50 was under 10 nM.

As to `O=C(Nc1ccc(-c2nn(C3CCC(C(=O)O)CC3)c3ccncc23)cc1)c1ccccc1` (stereo not drawn) [Compound 123, 4-(3-(4-benzamidophenyl)-1H-pyrazolo[4,3-c]pyridin-1-yl)cyclohexanecarboxylic acid], the IC50 was over 10000 nM.

For the compound `O=C(O)C1CCC(n2nc(-c3ccc(-c4ccccc4)cc3)c3cnccc32)CC1` (stereo not drawn) [Compound 124, 4-(3-([1,1′-biphenyl]-4-yl)-1H-pyrazolo[4,3-c]pyridin-1-yl)cyclohexanecarboxylic acid], the IC50 was over 10000 nM.

The next test has as its target T1, BTK. The test can be described thus: Btk occupancy in cellular assays (PCI-33380 labeling, Jeko-1 cells). As to conditions: 1.5 h pre-incubation with compound, PCI-33380 5 μM 1 h. In kind it is cell-based. On the procedure: Btk Occupancy in Cellular Assays
For PCI-33380 labeling of human B cells, 10^6 Jeko-1 cells were pre-incubated with compound for 1.5 h before labeling. Then cells were treated with PCI-33380 at 5 μM for 1 h. Washed, lysed in Ripa buffer containing sample reducing agent, and analyzed by SDS/PAGE and fluorescent gel scanning using a Typhoon scanner 9500 (GE Healthcare) (Ex, 532 nm; Em, 555 nm). The gel was then blotted and total Btk levels detected by standard Western blot with Btk antibody (CST).
Target sequence in this assay (Q06187 whole entry): as the sequence (Q06187 whole entry, species assumed) above
Take `C=CC(=O)N1CC[C@@H](n2nc(-c3ccc(Oc4cccc(OC)c4Cl)cc3)c3cncc(OC)c32)C1` [Compound 69, (R)-1-(3-(3-(4-(2-chloro-3-methoxyphenoxy)phenyl)-7-methoxy-1H-pyrazolo[4,3-c]pyridin-1-yl)pyrrolidin-1-yl)prop-2-en-1-one]: the “concentration sufficient to fully occupy the active site of Btk” value (from here on “concentration sufficient”) came out at 100 nM.

As to `C=CC(=O)N1CCC[C@@H](n2nc(-c3ccc(Oc4cccc(OC)c4F)cc3)c3cncc(OCCC)c32)C1` [Compound 77, (R)-1-(3-(3-(4-(2-fluoro-3-methoxyphenoxy)phenyl)-7-propoxy-1H-pyrazolo[4,3-c]pyridin-1-yl)piperidin-1-yl)prop-2-en-1-one], the “concentration sufficient” value stood at 25 nM.

`C=CC(=O)N1CCC[C@@H](n2nc(-c3ccc(Oc4cccc(OC)c4F)cc3)c3c(C)nccc32)C1` [Compound 78, (R)-1-(3-(3-(4-(2-fluoro-3-methoxyphenoxy)phenyl)-4-methyl-1H-pyrazolo[4,3-c]pyridin-1-yl)piperidin-1-yl)prop-2-en-1-one]: the “concentration sufficient” value is 50 nM.
